{"source": "patent US20250269043A1", "about": "“TARGETED BIFUNCTIONAL DEGRADERS” (YALE UNIVERSITY, priority 2019, published 2025)", "molecular_target": "T1, mouse MIF (Mus musculus, UniProt P34884)", "T1 construct": "mediate the depletion of endogenous mouse MIF in vivo; from tissue; host or cells: mouse serum, in vivo", "assay": "Depletion of endogenous mouse MIF in vivo", "set-up": "species or system mice", "conditions": "single dose of 10 mpk; FIG. 137", "method": "In order to confirm that mice injected with one or ten mpk MIF-GN3 had received the injection, and that the observed stability of MIF concentrations in MIF-GN3 treated mice was not the result of injection error, 200 μg of α-DNP antibody was coinjected with the MIF protein in this experiment. […] An investigation of the ability of MIF-GN3 to mediate the depletion of endogenous mouse MIF in vivo was next undertaken. Mice were treated with either PBS or 10 mpk of MIF-GN3. […] One possible explanation for this finding is that MIF protein may be synthesized rapidly, and any increase in degradation mediated by MIF-GN3 may not be of a large enough magnitude to impact the protein's level in serum.", "data": [{"smiles": "CC(=O)N[C@H]1[C@H](OCCOCCOCCNC(=O)CCOCC(COCCC(=O)NCCOCCOCCO[C@@H]2O[C@H](CO)[C@H](O)[C@H](O)[C@H]2NC(C)=O)(COCCC(=O)NCCOCCOCCO[C@@H]2O[C@H](CO)[C@H](O)[C@H](O)[C@H]2NC(C)=O)NC(=O)CNC(=O)CCCOc2ccc3nc(-c4cn(-c5ccc(O)c(F)c5)nn4)ccc3c2)O[C@H](CO)[C@H](O)[C@@H]1O", "note": "[MIF-GN3]", "values": [{"measurement": "mouse MIF concentrations in serum", "result": "No significant decrease"}]}]}
